Laboratory results from patent US10174013B2, “Benzimidazole derivatives as kinase inhibitors” (SELVITA S.A., priority 2012, dated 2019).
Where a name gives a salt, the structure may show the parent alone. Read-outs that look alike come from different tables or passages of the source.

Experiments:
HEL92 cells = assay: Growth inhibition, MTS assay, HEL92; assay type: cell-based, Human; settings: MTS cell viability, read-out: HEL92 ED50
MV4-11 cells = assay: Growth inhibition, MTS assay, MV4-11; assay type: cell-based, Human; settings: MTS cell viability, read-out: MV4-11 ED50
Jeko-1 cells = assay: Growth inhibition, MTS assay, Jeko-1; assay type: cell-based, Human; settings: 72 hours, MTS cell viability, read-out: Jeko-1 ED50
From the text: (§1) The following cell lines, were obtained and used in tests as outlined below: • Human myelomonocytic, biphenotypic leukemia MV4-11 cells (harboring a Flt3-ITD mutation); • Human Acute Myeloid Leukemia MOLM16 cells; • Human Acute Myeloid Leukemia MOLM13 cells (harboring a Flt3-ITD mutation); • Human Myeloid Leukemia KG-1 cells; • Human erythroleukemia HEL92 cells; • Human mantle cell lymphoma Jeko-1 cells; • Human hepatocellular carcinoma HepG2 cells; and • Human colon adenocarcinoma SW-480 cells.
(§2) The assays were carried out according to the following protocol, which is described as an example for the MV4-11 cells:
(§3) Ten thousand MV4-11 cells were inoculated into each well of a 96-well microplate (manufactured by Corning Corp.) using Iscove's MDM medium (culture medium) containing 10% fetal calf serum (FCS). The same day, a dimethyl sulfoxide (DMSO) solution of each test compound prepared in a concentration of 10 mmol/L was further diluted with DMSO to the desired concentrations (0.1, 0.5, 1, 2.5, 5 and 10 micromol/L), and the diluted solution was added to each well. The individual wells were further cultured in 5% carbon dioxide at 37° C. for 72 hours. […] Briefly, 10 μl MTS (3-(4,5-Dimethyl-2-thiazolyl)-5-(carboxymethoxyphenyl)-2-(4-sulfophenyl)-2H-tetrazolium was added to each well, and culturing was performed in 5% carbon dioxide at 37° C. for 2 hours. After this incubation and using a microplate spectrophotometer (Synergy 2 multi-mode microplate reader (BioTek)), the absorbance of each well was measured at 490 nm. The value for cells not incubated with a test compound was designated as 100%. By comparing these values with the absorbance difference obtained at the well in which each test compound was added, the cell viability (% viability) after treatment with the test compound was calculated.

CDK2/E = CDK2/E (Homo sapiens (Human), UniProt P24941); assay: ADP-Glo Kinase Assay, CDK2/E; assay type: biochemical; settings: 1 μM compound; for inhibition at 1 µM: read-out: CDK2/E % INH (1 μM)
How it was run: (§4)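 ADP-Glo luminescent ADP detection of human kinase activity in 5 mM MOPS pH 7.5, 5 mM MgCl2, 0.4 mM EDTA, 1.5 mM DTT. ATP at each kinase's apparent Km; compounds diluted to 1000 nM in assay buffer. Percent inhibition from normalised luminescence.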

DYRK1 = DYRK1 (Homo sapiens (Human), UniProt Q13627); assay: ADP-Glo Kinase Assay, DYRK1; assay type: biochemical; settings: 1 μM compound; for inhibition at 1 µM: read-out: DYRK1A % INH (1 μM)
How it was run: as §4

Pim-1 = Pim-1 (Homo sapiens (Human), UniProt P11309); assay: ADP-Glo Kinase Assay, Pim-1; assay type: biochemical; settings: 1 μM compound; for inhibition at 1 µM: read-out: Pim-1 % INH (1 μM)
How it was run: as §4

Pim-3 = Pim-3 (Homo sapiens (Human), UniProt Q86V86); assay: ADP-Glo Kinase Assay, Pim-3; assay type: biochemical; settings: 1 μM compound; for inhibition at 1 µM: read-out: Pim-3 % INH (1 μM)
How it was run: as §4

Pim-2 = Pim-2 (Homo sapiens (Human), UniProt Q9P1W9); assay: ADP-Glo Kinase Assay, Pim-2; assay type: biochemical; settings: 1 μM compound; for inhibition at 1 µM: read-out: Pim-2 % INH (1 μM)
How it was run: as §4

HepG2 cells = assay: Growth inhibition, MTS assay, HepG2; assay type: cell-based, Human; settings: MTS cell viability, read-out: HepG2 ED50
SW-480 cells = assay: Growth inhibition, MTS assay, SW-480; assay type: cell-based, Human; settings: 72 hours, MTS cell viability, read-out: SW-480 ED50
From the text: as §1, §2, §3

FLT3wt = FLT3wt (Homo sapiens (Human), UniProt P36888); assay: ADP-Glo Kinase Assay, Flt3 wt; assay type: biochemical; settings: 1 μM compound; for inhibition at 1 µM: read-out: Flt3wt % INH (1 μM)
How it was run: as §4

hERG potassium channel = hERG potassium channel (Homo sapiens (Human), UniProt Q12809); assay: hERG automated patch clamp assay (QPatch HT)
Protocol: The hERG (human ether-A-go-go-related gene) channel corresponds to an important anti-target for potential new drugs since its inhibition may lead to sudden death. In order to establish whether the compounds of the present invention act on hERG, the following experiment was carried out.
The in vitro effects of the compounds indicated in Table 5 on the hERG potassium channel current (a surrogate for Iκr, the rapidly activating, delayed rectifier cardiac potassium current) expressed in mammalian cells were evaluated at room temperature using the QPatch HT® (Sophion Bioscience A/S, Denmark), an automatic parallel patch clamp system. Each compound indicated in Table 5 was evaluated at 0.1, 1, 3, 10 and 30 μM with each concentration tested in a minimum of two cells (n≥2). The duration of exposure to each compound concentration was 3 minutes.

MV4-11 xenograft = MV4-11 xenograft in immunocompromised mice; assay type: in vivo; settings: MV4-11 xenograft, oral
From the text: Several compounds of the present invention have been studied in a xenograft in mice, an in vivo tumor transplantation model used to investigate the factors involved in malignant transformation, invasion and metastasis, as well as to examine response to therapy. For the purpose of acceptance of donor leukemic cells (MV4-11 or MOLM16 cells), immunocompromised mice were used, namely particularly severely compromised immunodeficient mice (NOD/scid, SCID/beige). When tumors developed size of approx. 50-200 mm^3, the compounds as indicated below in Tables 3 and 3a were administered orally every day for 2-3 weeks, in once a day (QD) or twice a day (BID) schedule. During the course of the experiment, the mice were monitored and the following two parameters were measured: the tumor growth inhibition (TGI) factor as a measure of therapeutic efficacy and the body weight change (ΔBW) factor as a measure of possible compound toxicity. The results are depicted in Tables 3 and 3a.
Next, compound 26A was evaluated in a xenograft study of acute myeloid leukemia (MV-4-11), alone or in a combinational treatment with Cytarabine in vivo (Table 3b; FIG. 6). Compound 26A was tested in two doses (50 and 25 mg/kg) and administered twice a day (BID); Cytarabine was administered at dose of 50 mg/kg three times in a week (TIW). During 15 days of compound administration dose-dependent anti-cancer activity of compound 26A (administered alone) was shown. Tumor growth inhibition reached −82% and −77%, respectively.

Chain of Pim-2 (Q9P1W9 whole entry): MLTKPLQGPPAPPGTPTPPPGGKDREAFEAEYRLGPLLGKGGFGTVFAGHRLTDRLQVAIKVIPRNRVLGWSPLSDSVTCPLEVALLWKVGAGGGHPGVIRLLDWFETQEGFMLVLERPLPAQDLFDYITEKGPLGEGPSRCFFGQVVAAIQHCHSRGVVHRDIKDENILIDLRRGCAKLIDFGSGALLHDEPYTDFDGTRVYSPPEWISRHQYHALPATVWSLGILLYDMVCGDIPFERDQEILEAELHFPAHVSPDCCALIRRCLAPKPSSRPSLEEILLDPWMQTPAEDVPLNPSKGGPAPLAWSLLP
Chain of Pim-1 (P11309 whole entry): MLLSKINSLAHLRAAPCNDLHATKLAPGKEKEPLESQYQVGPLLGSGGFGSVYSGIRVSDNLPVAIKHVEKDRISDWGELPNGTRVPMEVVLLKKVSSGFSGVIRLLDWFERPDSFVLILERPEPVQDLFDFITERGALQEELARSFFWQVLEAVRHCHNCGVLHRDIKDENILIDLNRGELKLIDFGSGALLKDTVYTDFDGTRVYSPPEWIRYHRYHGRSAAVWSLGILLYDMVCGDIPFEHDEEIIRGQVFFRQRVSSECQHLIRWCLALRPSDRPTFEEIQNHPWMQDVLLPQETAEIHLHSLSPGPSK
Chain of FLT3wt (P36888 27-993): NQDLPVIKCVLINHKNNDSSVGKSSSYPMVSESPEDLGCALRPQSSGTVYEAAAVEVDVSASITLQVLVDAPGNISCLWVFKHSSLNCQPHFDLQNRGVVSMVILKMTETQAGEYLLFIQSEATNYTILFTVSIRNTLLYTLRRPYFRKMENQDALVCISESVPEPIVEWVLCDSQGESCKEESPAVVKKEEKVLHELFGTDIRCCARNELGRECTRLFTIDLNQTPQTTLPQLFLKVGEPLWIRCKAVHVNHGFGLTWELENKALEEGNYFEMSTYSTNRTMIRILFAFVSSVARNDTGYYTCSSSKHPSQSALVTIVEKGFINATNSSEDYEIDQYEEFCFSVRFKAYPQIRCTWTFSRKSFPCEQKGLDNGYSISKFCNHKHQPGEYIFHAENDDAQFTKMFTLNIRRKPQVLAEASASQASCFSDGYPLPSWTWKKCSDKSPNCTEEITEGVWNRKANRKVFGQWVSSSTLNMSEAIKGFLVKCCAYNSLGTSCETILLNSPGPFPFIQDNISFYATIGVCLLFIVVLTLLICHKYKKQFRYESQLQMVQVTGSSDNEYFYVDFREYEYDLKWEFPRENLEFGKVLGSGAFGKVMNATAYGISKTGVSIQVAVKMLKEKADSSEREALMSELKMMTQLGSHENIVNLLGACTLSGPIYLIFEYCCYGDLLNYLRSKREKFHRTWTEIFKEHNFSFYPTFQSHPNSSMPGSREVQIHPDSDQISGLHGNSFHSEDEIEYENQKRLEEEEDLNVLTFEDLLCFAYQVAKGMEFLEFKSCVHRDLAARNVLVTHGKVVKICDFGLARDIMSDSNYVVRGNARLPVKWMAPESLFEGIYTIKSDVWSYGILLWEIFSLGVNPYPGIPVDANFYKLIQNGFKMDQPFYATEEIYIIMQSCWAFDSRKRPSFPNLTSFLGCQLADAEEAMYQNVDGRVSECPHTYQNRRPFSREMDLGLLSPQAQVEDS
Chain of hERG potassium channel (Q12809 whole entry): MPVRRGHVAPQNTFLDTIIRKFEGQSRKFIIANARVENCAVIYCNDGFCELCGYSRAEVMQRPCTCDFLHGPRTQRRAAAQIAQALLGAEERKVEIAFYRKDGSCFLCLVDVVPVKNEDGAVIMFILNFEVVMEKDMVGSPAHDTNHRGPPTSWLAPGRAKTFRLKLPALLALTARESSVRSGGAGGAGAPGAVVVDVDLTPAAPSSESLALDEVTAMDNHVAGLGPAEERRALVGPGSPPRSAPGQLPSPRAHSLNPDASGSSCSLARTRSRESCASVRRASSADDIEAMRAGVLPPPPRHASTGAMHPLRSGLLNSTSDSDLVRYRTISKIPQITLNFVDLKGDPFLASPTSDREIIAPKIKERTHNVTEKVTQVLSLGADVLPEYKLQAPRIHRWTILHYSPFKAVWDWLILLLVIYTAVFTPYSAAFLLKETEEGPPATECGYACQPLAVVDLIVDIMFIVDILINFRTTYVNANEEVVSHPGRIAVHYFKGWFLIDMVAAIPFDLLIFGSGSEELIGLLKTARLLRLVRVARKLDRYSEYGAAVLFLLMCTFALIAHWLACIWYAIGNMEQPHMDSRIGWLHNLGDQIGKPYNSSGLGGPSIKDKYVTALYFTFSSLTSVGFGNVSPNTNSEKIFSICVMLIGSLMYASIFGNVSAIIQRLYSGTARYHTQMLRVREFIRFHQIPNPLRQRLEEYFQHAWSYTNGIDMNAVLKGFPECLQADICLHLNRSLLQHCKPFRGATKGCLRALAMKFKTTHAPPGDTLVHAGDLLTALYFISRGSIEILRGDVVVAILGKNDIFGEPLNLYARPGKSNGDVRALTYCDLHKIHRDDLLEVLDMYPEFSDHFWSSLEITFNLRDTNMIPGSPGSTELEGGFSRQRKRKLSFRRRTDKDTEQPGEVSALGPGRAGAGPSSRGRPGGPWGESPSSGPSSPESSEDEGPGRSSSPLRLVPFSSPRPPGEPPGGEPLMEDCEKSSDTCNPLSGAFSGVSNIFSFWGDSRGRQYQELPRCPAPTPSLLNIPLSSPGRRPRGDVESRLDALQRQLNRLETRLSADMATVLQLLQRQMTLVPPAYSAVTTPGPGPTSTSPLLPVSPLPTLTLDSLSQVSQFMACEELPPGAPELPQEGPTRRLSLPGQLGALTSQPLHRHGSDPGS

| Structure (SMILES) | IC50 (MV4-11 cells; Homo sapiens, MV4-11, 72 h) | inhibition at 1 µM (CDK2/E) | inhibition at 1 µM (DYRK1) | inhibition at 1 µM (Pim-1) | inhibition at 1 µM (Pim-3) | inhibition at 1 µM (Pim-2) | IC50 (HepG2 cells; Homo sapiens, HepG2, 72 h) | IC50 (SW-480 cells; Homo sapiens, SW480) | inhibition at 1 µM (FLT3wt) | IC50 (HEL92 cells; Homo sapiens, 72 h) | IC50 (Jeko-1 cells; Homo sapiens, JeKo-1) | IC50 (hERG potassium channel) | further results |
| --- | --- | --- | --- | --- | --- | --- | --- | --- | --- | --- | --- | --- | --- |
| CCCn1c(NCCCN)nc2c([N+](=O)[O-])c(Br)c(Br)cc21 [Example 1P] |  |  |  |  |  |  |  |  |  |  |  | 1.88 µM | IC50 (HEL92 cells; 72 hours): 7.0 µM; IC50 (MV4-11 cells; 72 hours): 1.4 µM; CDK2/E % INH (1 μM) (CDK2/E): <5%; DYRK1A % INH (1 μM) (DYRK1): 23%; Pim-1 % INH (1 μM) (Pim-1): >95%; Pim-3 % INH (1 μM) (Pim-3): 77%; Pim-2 % INH (1 μM) (Pim-2): 36%; IC50 (HepG2 cells; 72 hours): 1.5 µM; IC50 (SW-480 cells): 2.9 µM; Flt3wt % INH (1 μM) (FLT3wt): 37% |
| O=[N+]([O-])c1c(Br)c(Br)cc2c1nc(N1CCNCC1)n2CCN1CCNCC1 [Example 2C, 5,6-dibromo-4-nitro-2-(piperazin-1-yl)-1-[2-(piperazin-1-yl)ethyl]-1H-1,3-benzodiazole hydrochloride] | 2.8 µM |  |  |  |  |  | 7 µM |  |  |  | 6.2 µM | 2.5 µM |  |
| CCn1c(NCC2CCCN2)nc2c([N+](=O)[O-])c(Br)c(Br)cc21 (stereo not shown) [Example 1AM] | 2.6 µM | 12% |  | 85% | 53% |  | 2.7 µM |  | < 5% | 8 µM | 2.8 µM |  | IC50 (hERG potassium channel; human, 3 min): 1.46 µM |
| CC(C)n1c(N2CCCC(N)C2)nc2c([N+](=O)[O-])c(Br)c(Br)cc21 (stereo not shown) [Example 1T] | 0.6 µM | 7% | 27% | > 95% | > 95% | 81% | 1.3 µM | 3.2 µM | 21% | 5.1 µM | 1.7 µM |  |  |
| CCCn1c(NCC(O)CN)nc2c([N+](=O)[O-])c(Br)c(Br)cc21 (stereo not shown) [Example 1X] | 1.2 µM | 17% | 16% | > 95% | > 95% | 36% |  |  | < 5% |  | 4.3 µM | 20.4 µM |  |
| CCn1c(N2CCNC(=O)C2)nc2c([N+](=O)[O-])c(Br)c(Br)cc21 [Example 22A, 4-(5,6-dibromo-1-ethyl-4-nitro-1H-1,3-benzodiazol-2-yl)piperazin-2-one] |  | < 5% |  | 65% | 28% |  |  |  | 8% |  |  |  | IC50 (hERG potassium channel; read-out: hERG IC50, automated patch clamp, room temperature, 0.1-30 μM, 3 minutes exposure): 10.1 µM |
| CC(C)Cn1c(N2CCNCC2)nc2c([N+](=O)[O-])c(Br)c(Br)cc21 [Example 1N] | 0.6 µM | 39% | > 95% | > 95% | > 95% | 69% | 1.7 µM | 1.2 µM | 55% | 1.4 µM |  |  | TGI (tumor growth inhibition) (MV4-11 xenograft; 150 mg/Kg QD): 52%; ΔBW (body weight change) (MV4-11 xenograft; 150 mg/Kg QD): −6.5%; TGI (tumor growth inhibition) (MV4-11 xenograft; doses as in Table 3): up to 70%; IC50 (hERG potassium channel; human, 3 min): 1.28 µM |
| CC(C)n1c(N2CCOC(CN)C2)nc2c([N+](=O)[O-])c(Br)c(Br)cc21 (stereo not shown) [Example 1AQ] | 2.5 µM | < 5% | 22% | > 95% | 83% | 40% | 4.9 µM |  | < 5% | 9.6 µM |  |  | IC50 (hERG potassium channel; human, 3 min): 1.86 µM |
| CC(C)Cn1c(NCC(O)CN)nc2c([N+](=O)[O-])c(Br)c(Br)cc21 (stereo not shown) [Example 1Y] | 1.4 µM | 6% |  | > 95% | 86% | 25% |  |  | < 5% |  | 3.4 µM | 16.9 µM |  |
| CC(C)n1c(N[C@@H]2CCCNC2)nc2c([N+](=O)[O-])c(Br)c(Br)cc21 [Example 1AS] |  |  |  |  |  |  |  |  |  |  |  | 5.77 µM | IC50 (HEL92 cells; 72 hours): 5.4 µM; IC50 (MV4-11 cells; 72 hours): 0.6 µM; IC50 (Jeko-1 cells): 1.1 µM; IC50 (HepG2 cells; 72 hours): 1.4 µM |

Second part, led by results:

| IC50 (MV4-11 cells; Homo sapiens, MV4-11, 72 h) | inhibition at 1 µM (CDK2/E) | inhibition at 1 µM (DYRK1) | inhibition at 1 µM (Pim-1) | inhibition at 1 µM (Pim-3) | inhibition at 1 µM (Pim-2) | IC50 (HepG2 cells; Homo sapiens, HepG2, 72 h) | IC50 (SW-480 cells; Homo sapiens, SW480) | inhibition at 1 µM (FLT3wt) | Structure (SMILES) | IC50 (HEL92 cells; Homo sapiens, 72 h) | IC50 (Jeko-1 cells; Homo sapiens, JeKo-1) | IC50 (hERG potassium channel) | further results |
| --- | --- | --- | --- | --- | --- | --- | --- | --- | --- | --- | --- | --- | --- |
| 0.5 µM | 5% | 50% | 87% | 71% | 42% | 1.6 µM | 3.2 µM | 37% | O=[N+]([O-])c1c(Br)c(Br)cc2c1nc(N1CCNCC1)n2C1CC1 [Example 21A, 5,6-dibromo-1-cyclopropyl-4-nitro-2-(piperazin-1-yl)-1H-1,3-benzodiazole trifluoroacetate] | 1.9 µM | 0.6 µM |  |  |
| 1.9 µM | < 5% | 17% | 80% | > 95% |  | 1.3 µM | 1.2 µM | < 5% | CCn1c(NC2CCCCC2N)nc2c([N+](=O)[O-])c(Br)c(Br)cc21 (stereo not shown) [Example 22L, 1-N-(5,6-dibromo-1-ethyl-4-nitro-1H-1,3-benzodiazol-2-yl)cyclohexane-1,2-diamine] | 3.2 µM |  | 0.85 µM |  |
| 1.1 µM |  |  |  |  |  | 1.2 µM | 0.5 µM |  | CCn1c(N2CCN(CCCN3CCNCC3)CC2)nc2c([N+](=O)[O-])c(Br)c(Br)cc21 [Example 22R, 5,6-dibromo-1-ethyl-4-nitro-2-{4{3-(piperazin-1-yl)propyl]piperazin-1-yl}-1H-1,3-benzodiazole] | 2.9 µM |  | 1.78 µM |  |
